Values after ≈ are worked out from the molar mass of the structure shown.
How the values were obtained:
Assay in all cases: MIC assay
Format in all cases: cell-based, Enterococcus faecium
E. faecium E980 = test system: E. faecium E980
How it was run: (§1)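 MICs (μg/mL) were read after 24 h incubation at 37 °C and taken as the median of at least three replicates. Compounds were serially diluted twofold in TSB containing 0.002% polysorbate 80 and inoculated with an equal volume of bacteria at 10^6 CFU/mL.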

E. faecium E7403 = conditions: E. faecium E7403, VanB
How it was run: as §1

E. faecium E7424 = conditions: E. faecium E7424, VanB
How it was run: as §1

E. faecium E8218 = conditions: E. faecium E8218, VanB
How it was run: as §1

E. faecium E0300 = conditions: E. faecium E0300, VanA
How it was run: as §1

E. faecium E7413 = conditions: E. faecium E7413, VanA
How it was run: as §1

E. faecium E7464 = conditions: E. faecium E7464, VanB
How it was run: as §1

E. faecium E8237 = conditions: E. faecium E8237, VanA
How it was run: as §1

E. faecium E7401 = conditions: E. faecium E7401, VanB
How it was run: as §1

E. faecium E0333 = conditions: E. faecium E0333, VanA
How it was run: as §1

E. faecium E7329 = conditions: E. faecium E7329, VanA
How it was run: as §1

E. faecium EO321 = conditions: E. faecium EO321, VanA
How it was run: as §1

E. faecium E2297 = conditions: E. faecium E2297, VanA
How it was run: as §1

E. faecium E0013 = conditions: E. faecium E0013, VanA
How it was run: as §1

E. faecium E2373 = conditions: E. faecium E2373, VanA
How it was run: as §1

E. faecium E8235 = conditions: E. faecium E8235, VanB
How it was run: as §1

E. faecium E7319 = conditions: E. faecium E7319, VanA
How it was run: as §1

E. faecium E1763 = conditions: E. faecium E1763, VanA
How it was run: as §1

E. faecium E1679 = conditions: E. faecium E1679, VanA
How it was run: as §1

E. faecium E0506 = conditions: E. faecium E0506, VanA
How it was run: as §1

E. faecium E6016 = conditions: E. faecium E6016, VanA
How it was run: as §1

SMILES	MIC (E. faecium E980; E. faecium E980 VSE) [µg/mL]	MIC (E. faecium E7403) [µg/mL]	MIC (E. faecium E7424) [µg/mL]	MIC (E. faecium E8218) [µg/mL]	MIC (E. faecium E0300) [µg/mL]	MIC (E. faecium E7413) [µg/mL]	MIC (E. faecium E7464) [µg/mL]	MIC (E. faecium E8237) [µg/mL]	MIC (E. faecium E7401) [µg/mL]	MIC (E. faecium E0333) [µg/mL]	MIC (E. faecium E7329) [µg/mL]	MIC (E. faecium EO321) [µg/mL]	MIC (E. faecium E2297) [µg/mL]	MIC (E. faecium E0013) [µg/mL]	MIC (E. faecium E2373) [µg/mL]	MIC (E. faecium E8235) [µg/mL]	MIC (E. faecium E7319) [µg/mL]	MIC (E. faecium E1763) [µg/mL]	MIC (E. faecium E1679) [µg/mL]	MIC (E. faecium E0506) [µg/mL]	also measured
CCCCCCCNC(N)=Nc1ccc(CN[C@@]2(C)C[C@H](O[C@H]3[C@H](Oc4c5cc6cc4Oc4ccc(cc4Cl)[C@@H](O)[C@@H](NC(=O)[C@@H](CC(C)C)NC)C(=O)N[C@@H](CC(N)=O)C(=O)N[C@H]6C(=O)N[C@H]4C(=O)N[C@H](C(=O)N[C@H](C(=O)O)c6cc(O)cc(O)c6-c6cc4ccc6O)[C@H](O)c4ccc(c(Cl)c4)O5)O[C@H](CO)[C@@H](O)[C@@H]3O)O[C@@H](C)[C@H]2O)cc1 [Compound 5]	≤0.007812	≤0.008	≤0.008	≤0.008	4 (≈ 2.36 µM)	8 (≈ 4.72 µM)	≤0.008	8 (≈ 4.72 µM)	≤0.008	8 (≈ 4.72 µM)	≤0.008	8 (≈ 4.72 µM)	2 (≈ 1.18 µM)	4 (≈ 2.36 µM)	4 (≈ 2.36 µM)	≤0.008	0.5 (≈ 0.295 µM)	0.25 (≈ 0.148 µM)	16 (≈ 9.44 µM)	2 (≈ 1.18 µM)	MIC (E. faecium E6016): 1 µg/mL (≈ 0.59 µM)
CCCCCCCCNC(N)=Nc1ccc(CN[C@@]2(C)C[C@H](O[C@H]3[C@H](Oc4c5cc6cc4Oc4ccc(cc4Cl)[C@@H](O)[C@@H](NC(=O)[C@@H](CC(C)C)NC)C(=O)N[C@@H](CC(N)=O)C(=O)N[C@H]6C(=O)N[C@H]4C(=O)N[C@H](C(=O)N[C@H](C(=O)O)c6cc(O)cc(O)c6-c6cc4ccc6O)[C@H](O)c4ccc(c(Cl)c4)O5)O[C@H](CO)[C@@H](O)[C@@H]3O)O[C@@H](C)[C@H]2O)cc1 [Compound 6]	0.01562 (≈ 0.00914 µM)	≤0.008	≤0.008	≤0.008	2 (≈ 1.17 µM)	4 (≈ 2.34 µM)	≤0.008	2 (≈ 1.17 µM)	≤0.008	4 (≈ 2.34 µM)	≤0.008	4 (≈ 2.34 µM)	1 (≈ 0.585 µM)	1 (≈ 0.585 µM)	2 (≈ 1.17 µM)	≤0.008	0.125 (≈ 0.0732 µM)	0.031 (≈ 0.0181 µM)	8 (≈ 4.68 µM)	2 (≈ 1.17 µM)	MIC (E. faecium E6016): 0.5 µg/mL (≈ 0.293 µM)
CCCCCCCCCNC(N)=Nc1ccc(CN[C@@]2(C)C[C@H](O[C@H]3[C@H](Oc4c5cc6cc4Oc4ccc(cc4Cl)[C@@H](O)[C@@H](NC(=O)[C@@H](CC(C)C)NC)C(=O)N[C@@H](CC(N)=O)C(=O)N[C@H]6C(=O)N[C@H]4C(=O)N[C@H](C(=O)N[C@H](C(=O)O)c6cc(O)cc(O)c6-c6cc4ccc6O)[C@H](O)c4ccc(c(Cl)c4)O5)O[C@H](CO)[C@@H](O)[C@@H]3O)O[C@@H](C)[C@H]2O)cc1 [Compound 7]	0.03125 (≈ 0.0181 µM)	≤0.008	≤0.008	≤0.008	0.5 (≈ 0.29 µM)	2 (≈ 1.16 µM)	≤0.008	1 (≈ 0.58 µM)	≤0.008	1 (≈ 0.58 µM)	≤0.008	1 (≈ 0.58 µM)	0.5 (≈ 0.29 µM)	0.5 (≈ 0.29 µM)	0.5 (≈ 0.29 µM)	≤0.008	0.063 (≈ 0.0366 µM)	≤0.008	4 (≈ 2.32 µM)	0.5 (≈ 0.29 µM)	MIC (E. faecium E6016): 0.25 µg/mL (≈ 0.145 µM)
CCCCCCN(CCCCCC)C(N)=Nc1ccc(CN[C@@]2(C)C[C@H](O[C@H]3[C@H](Oc4c5cc6cc4Oc4ccc(cc4Cl)[C@@H](O)[C@@H](NC(=O)[C@@H](CC(C)C)NC)C(=O)N[C@@H](CC(N)=O)C(=O)N[C@H]6C(=O)N[C@H]4C(=O)N[C@H](C(=O)N[C@H](C(=O)O)c6cc(O)cc(O)c6-c6cc4ccc6O)[C@H](O)c4ccc(c(Cl)c4)O5)O[C@H](CO)[C@@H](O)[C@@H]3O)O[C@@H](C)[C@H]2O)cc1 [Compound 12]	≤0.007812	≤0.008	≤0.008	≤0.008	1 (≈ 0.567 µM)	2 (≈ 1.13 µM)	≤0.008	2 (≈ 1.13 µM)	≤0.008	2 (≈ 1.13 µM)	≤0.008	2 (≈ 1.13 µM)	1 (≈ 0.567 µM)	2 (≈ 1.13 µM)	1 (≈ 0.567 µM)	≤0.008	0.25 (≈ 0.142 µM)	0.031 (≈ 0.0176 µM)	8 (≈ 4.53 µM)	1 (≈ 0.567 µM)	MIC (E. faecium E6016): 0.5 µg/mL (≈ 0.283 µM)
CN[C@H](CC(C)C)C(=O)N[C@H]1C(=O)N[C@@H](CC(N)=O)C(=O)N[C@H]2C(=O)N[C@H]3C(=O)N[C@H](C(=O)N[C@H](C(=O)O)c4cc(O)cc(O)c4-c4cc3ccc4O)[C@H](O)c3ccc(c(Cl)c3)Oc3cc2cc(c3O[C@@H]2O[C@H](CO)[C@@H](O)[C@H](O)[C@H]2O[C@H]2C[C@](C)(NCc3ccc(N=C(N)NC/C=C(\C)CCC=C(C)C)cc3)[C@H](O)[C@H](C)O2)Oc2ccc(cc2Cl)[C@H]1O [Compound 14]	≤0.007812	≤0.008	≤0.008	≤0.008	4 (≈ 2.31 µM)	8 (≈ 4.62 µM)	≤0.008	4 (≈ 2.31 µM)	≤0.008	8 (≈ 4.62 µM)	≤0.008	8 (≈ 4.62 µM)	2 (≈ 1.15 µM)	2 (≈ 1.15 µM)	4 (≈ 2.31 µM)	≤0.008	0.5 (≈ 0.289 µM)	0.125 (≈ 0.0721 µM)	16 (≈ 9.23 µM)	2 (≈ 1.15 µM)	MIC (E. faecium E6016): 2 µg/mL (≈ 1.15 µM)
CN[C@H](CC(C)C)C(=O)N[C@H]1C(=O)N[C@@H](CC(N)=O)C(=O)N[C@H]2C(=O)N[C@H]3C(=O)N[C@H](C(=O)N[C@H](C(=O)O)c4cc(O)cc(O)c4-c4cc3ccc4O)[C@H](O[C@H]3C[C@](C)(N)[C@@H](O)[C@H](C)O3)c3ccc(c(Cl)c3)Oc3cc2cc(c3O[C@@H]2O[C@H](CO)[C@@H](O)[C@H](O)[C@H]2O[C@H]2C[C@](C)(NCc3ccc(-c4ccc(Cl)cc4)cc3)[C@@H](O)[C@H](C)O2)Oc2ccc(cc2Cl)[C@H]1O [Oritavancin]	–	–	–	–	–	–	–	–	–	–	–	–	–	–	–	–	–	–	–	–	MIC (E. faecium E980; Enterococcus faecium, E980): 0.0625 µg/mL (≈ 0.0349 µM)

Source: patent US20230174584A1, “Antibiotic Compounds” (priority 2019, published 2023)
